Measured values taken from patent US4742069A, “Sulfonamide containing dihydropyridine derivatives, intermediates and medicinal use” (Hoffmann-La Roche Inc., priority 1984, dated 1988).

Experiments:
[1] = biological target: ^3 H-nifedipine (or ^3 H-nitrendipine) binding, rabbit or guinea pig heart membranes; test: 3H-Nifedipine binding determinations; details: for A: % max. inhib. (maximum inhibition of specific binding): reference compound nifedipine established as 100%
Procedure: A. ^3 H-Nifedipine binding determinations:
The determination is carried out on homogenates or on partially-cleaned membranes of rabbit or guinea pig heart. The reaction mixture (0.3 ml) consists of 0.2-0.8 mg of membrane protein, 1 nM of ^3 H-nifedipine (or 0.25 nM of ^3 H-nitrendipine) and various concentrations of the test substances. The incubation lasts 30 minutes at 25° C. or 37° C. and is stopped by dilution with the incubation buffer; a filtration is subsequently carried out. The filter-bound radioactivity is measured with a scintillation counter. Specific binding (i.e. receptor-bound) is defined as the difference between total and unspecific-bound radioactivity. The unspecific binding is determined in the presence of an excess of non-radioactive nifedipine (1 μM).
The activity (potency) of a compound in this test is defined by the IC50 and % maximum inhibition values (% max. inhibition). The IC50 is the substance concentration (in mol/l) which produces a half-maximum inhibition of the specific ^3 H-nifedipine (or ^3 H-nitrendipine) binding. In the table compound A has an IC50 in mol/l, of 3.0.10^-8 which means 3.0×10^-8. The maximum inhibition of the specific binding is given by the % maximum inhibition value; this value is established as 100% for the reference compound nifedipine. Both parameters are extrapolated from a concentration-binding curve.

[2] = test system: KCl contracture of coronary artery strips of dogs (tension-dependent calcium channel); test: Coronary artery strips of dogs, relaxation of KCl contracture; assay type: cell-based, dog; details: Canis lupus familiaris; KCl 84.7 mM, 37° C.; read-out: B: IC50 (half-maximum relaxation of KCl contracture)
Procedure: B. Coronary artery strips of dogs:
In this experiment spiral strips (2-2.5 mm wide and 10 mm long) of coronary arteries of dogs are cut and hung up in an organ chamber under an initial tension of 1.5 g. These strips are pre-incubated for a duration of about 1 to 2 hours in Krebs-Henseleit buffer solution which is gassed with Oxycarbon (a mixture of 95% oxygen and 5% carbon dioxide) at 37° C. The relaxing activity of one of these substances is subsequently tested on a KCl (84.7 mM) contracture by the addition of increasing concentrations of the test substance to the organ chamber. The calcium channel-blocking activity of the test substances can therefore be established, as the KCl contracture occurs exclusively by means of calcium flow through the tension-dependent calcium channel.
The activity of a test substance in this test is given by the IC50 value. This value is defined as the substance concentration (in mol/l) which produces a half-maximum relaxation of a KCl contracture. This value is also extrapolated from the resulting concentration-activity curve.

narcotized dog = test: Hemodynamic parameters in the narcotized dog; assay type: in vivo
Text: C. Hemodynamic parameters in the narcotized dog:
The 4 most important measurement parameters (with respective measurement units) of the hemodynamic experiment are: (1) CBF: Coronary Blood Flow (in ml/min)--the velocity of blood flow through the coronary arteries; (2) HR: heart rate (in beats/min)--the heart frequency; (3) BP: blood pressure (in mm Hg); and (4) dp/dt: rate of increase in left ventricular pressure (in mm Hg/sec) as a measurement of the contractility force of the heart. The values are given as the % maximum variation from the initial value (Δ%) and the duration in minutes of this variation (t) per dosage administered.
There is thus obtained not only an overall picture of the activity of the substance, but also an estimation as to the potential selectivity for a specific part of the circulatory system in the entire organism. After the administration of an anesthetic, the dog is intubated and respired artificially. Blood pH, pCO2, pO2 and hemoglobin are measured hourly with a blood-gas analyzer. The blood pressure (systolic and diastolic) is measured with a probe in the aorta abdominalis. The heart frequency is recorded by means of a tachometer, which is disengaged from the pressure pulse. For the other measurements the heart must first be opened in order that a probe can be inserted in the left ventricle (heart chamber) for the pressure measurements (dp/dt). The coronary blood flow is measured with a flowing probe in the left coronary artery (descendens).
This allows the prediction that they are useful as agents in the control or prevention of angina pectoris, ischemia, high blood pressure and migraine.

| IC50 ([1]; read-out: IC50 (half-maximum inhibition of specific 3H-nifedipine binding), as repeated in the text) [nM] | A: % max. inhib. (maximum inhibition of specific binding) [1] [%] | IC50 [2] [nM] | Compound | BP blood pressure, duration of variation (t) (narcotized dog; 0.03 mg/kg p.o.) [min] | BP blood pressure, maximum variation from initial value (Δ%) (narcotized dog; 0.03 mg/kg p.o.) [%] | CBF coronary blood flow, duration of variation (t) (narcotized dog; 0.03 mg/kg p.o.) [min] | CBF coronary blood flow, maximum variation from initial value (Δ%) (narcotized dog; 0.03 mg/kg p.o.) [%] | HR heart rate, duration of variation (t) (narcotized dog; 0.03 mg/kg p.o.) [min] | HR heart rate, maximum variation from initial value (Δ%) (narcotized dog; 0.03 mg/kg p.o.) [%] | dp/dt rate of increase in left ventricular pressure, maximum variation from initial value (Δ%) (narcotized dog; 0.03 mg/kg p.o.) [%] | dp/dt, duration of variation (t) (narcotized dog; 0.03 mg/kg p.o.) [min] | BP blood pressure, duration of variation (t) (narcotized dog; 0.1 mg/kg p.o.) [min] | BP blood pressure, maximum variation from initial value (Δ%) (narcotized dog; 0.1 mg/kg p.o.) [%] | CBF coronary blood flow, duration of variation (t) (narcotized dog; 0.1 mg/kg p.o.) [min] | CBF coronary blood flow, maximum variation from initial value (Δ%) (narcotized dog; 0.1 mg/kg p.o.) [%] | HR heart rate, duration of variation (t) (narcotized dog; 0.1 mg/kg p.o.) [min] | HR heart rate, maximum variation from initial value (Δ%) (narcotized dog; 0.1 mg/kg p.o.) | dp/dt rate of increase in left ventricular pressure, maximum variation from initial value (Δ%) (narcotized dog; 0.1 mg/kg p.o.) [%] | dp/dt, duration of variation (t) (narcotized dog; 0.1 mg/kg p.o.) [min] |
| --- | --- | --- | --- | --- | --- | --- | --- | --- | --- | --- | --- | --- | --- | --- | --- | --- | --- | --- | --- |
| 30 | 100 | 6.8 | CCNS(=O)(=O)CC(=O)C1=C(C)NC(C)=C(C(=O)OC(C)C)C1c1cccc([N+](=O)[O-])c1 (centres unmarked) [A, 5-[(Ethylsulfamoyl)acetyl]-1,4-dihydro-2,6-dimethyl-4-(3-nitrophenyl)nicotinic acid isopropyl ester] | > 60 | -13 | 90 | 98 | 60 | -11 | 37 | 90 | – | – | – | – | – | – | – | – |
| – | 100 | 0.82 | CC1=C(C(=O)CS(=O)(=O)NC(C)C)C(c2cc([N+](=O)[O-])ccc2Cl)C(C(=O)OC(C)C)=C(C)N1 (centres unmarked) [D, 4-(2-chloro-5-nitrophenyl)-1,4-dihydro-5-[(isopropylsulfamoyl)acetyl]-2,6-dimethylnicotinic acid isopropyl ester] | > 60 | -9 | > 120 | 68 | 60 | -5 | 75 | 90 | – | – | – | – | – | – | – | – |
| – | 100 | 6.6 | CC1=C(C(=O)CS(=O)(=O)NC(C)C)C(c2cc(Cl)ccc2Cl)C(C(=O)OC(C)C)=C(C)N1 (centres unmarked) [E, 4-(2,5-dichlorophenyl)-1,4-dihydro-5-[(isopropylsulfamoyl)acetyl]-2,6-dimethylnicotinic acid isopropyl ester] | > 120 | -16 | 70 | 104 | 120 | -14 | 65 | 90 | – | – | – | – | – | – | – | – |
| – | 100 | 9.5 | CNS(=O)(=O)CC(=O)C1=C(C)NC(C)=C(C(=O)OCC(F)(F)F)C1c1cccc([N+](=O)[O-])c1 (centres unmarked) [C, 1,4-dihydro-2,6-dimethyl-5-[(methylsulfamoyl)acetyl]-4-(3-nitrophenyl)nicotinic acid 2,2,2-trifluoroethyl ester] | – | – | – | – | – | – | – | – | > 180 | -16 | 180 | 88 | 120 | +2% | 33 | 180 |
| – | 100 | – | COC(=O)C1=C(C)NC(C)=C(C(=O)OC)C1c1ccccc1[N+](=O)[O-] [nifedipine, reference compound] | – | – | – | – | – | – | – | – | – | – | – | – | – | – | – | – |
| – | 99 | 0.6 | CCCOCCOC(=O)C1=C(C)NC(C)=C(C(=O)CS(=O)(=O)NC(C)C)C1c1cccc([N+](=O)[O-])c1 (centres unmarked) [F, 1,4-dihydro-5-[(isopropylsulfamoyl)acetyl]-2,6-dimethyl-4-(3-nitrophenyl)nicotinic acid 2-propoxyethyl ester] | > 60 | -11 | 120 | 56 | 16 | -5 | 34 | 60 | – | – | – | – | – | – | – | – |
| – | 100 | 7.4 | CC1=C(C(=O)CS(=O)(=O)NC(C)C)[C@H](c2cccc([N+](=O)[O-])c2)C(C(=O)O[C@@H](C)c2ccccc2)=C(C)N1 [G, (S)-1,4-dihydro-5-[(isopropylsulfamoyl)acetyl]-2,6-dimethyl-4-(3-nitrophenyl)nicotinic acid (S)-1-phenylethyl ester] | > 120 | -36 | > 120 | 57 | > 120 | -13 | 29 | > 120 | – | – | – | – | – | – | – | – |
| – | 94 | 16 | CNS(=O)(=O)CC(=O)C1=C(C)NC(C)=C(C(=O)OC(C)C)C1c1cccc([N+](=O)[O-])c1 (centres unmarked) [B, 1,4-dihydro-2,6-dimethyl-5-[(methylsulfamoyl)acetyl]-4-(3-nitrophenyl)nicotinic acid isopropyl ester] | > 90 | -8 | > 90 | 120 | – | 0 | 10 | > 90 | – | – | – | – | – | – | – | – |
